From patent US11161912B2, “Heparanase-neutralizing monoclonal antibodies” (Technion Research & Development Foundation Limited, priority 2015, dated 2021)

Key:
heparanase = molecular target: T1, heparanase (Homo sapiens, UniProt Q9Y251); settings: prior art; cited from earlier work
T1 sequence (Q9Y251 36-543): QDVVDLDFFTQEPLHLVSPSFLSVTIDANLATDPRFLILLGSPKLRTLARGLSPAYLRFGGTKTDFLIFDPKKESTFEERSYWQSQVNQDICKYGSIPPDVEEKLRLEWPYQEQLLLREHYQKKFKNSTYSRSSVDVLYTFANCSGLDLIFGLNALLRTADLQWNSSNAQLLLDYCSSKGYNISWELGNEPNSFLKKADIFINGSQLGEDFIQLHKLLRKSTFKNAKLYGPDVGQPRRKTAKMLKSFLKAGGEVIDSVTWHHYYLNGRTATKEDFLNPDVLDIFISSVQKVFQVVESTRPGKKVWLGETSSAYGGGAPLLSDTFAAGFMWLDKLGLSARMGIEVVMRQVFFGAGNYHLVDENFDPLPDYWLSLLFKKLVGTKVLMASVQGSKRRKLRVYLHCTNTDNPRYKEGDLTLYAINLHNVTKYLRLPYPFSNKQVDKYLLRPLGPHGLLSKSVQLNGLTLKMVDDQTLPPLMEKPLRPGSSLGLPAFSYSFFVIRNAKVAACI

[1] = prior art; cited from earlier work
Ramos lymphoma cells = experiment: Subcutaneous Ramos lymphoma xenograft in NOD/SCID mice; type: in vivo, human; settings: PG545 IP 20 mg/kg once weekly from one day after inoculation
Experimental: (§1) Lymphoma cells were also inoculated subcutaneously at the right flank of 6-weeks-old NOD/SCID mice (human cell lines) or C57BL/6 mice (E1-4 mouse lymphoma cells) (n=7). Mice were treated with heparanase inhibitors (PG545; SST0001) or neutralizing antibodies and xenografts size was determined by externally measuring the tumors in 2 dimensions using a caliper. At the end of the experiment, mice were sacrificed; tumor xenografts were removed, weighed and fixed for histological and immunohistochemical analyses (Weissmann et al, 2016, Proc Natl Acad Sci USA 113:704-709). […]
(§2) A. Specimens of human follicular (FIG. 1A, left panel) and diffuse (FIG. 1A, right panel) B-cell lymphomas were subjected for immunostaining applying anti-heparanase antibody. […] Lysates of Raji cells and extracts of tumor xenografts produced by Raji cells were applied onto dishes coated with sulfate-labelled ECM and heparanase enzymatic activity was determined as described (Vlodaysky I, et al. 1999, Nature Med 5(7):793-802). […] Extracts of control (Con) and PG545-treated tumor xenografts produced by Raji cells were applied onto dishes coated with sulfate labelled ECM and heparanase activity was determined as above (lower panel).

[2] = system: E1-4 mouse lymphoma cells; experiment: Subcutaneous E1-4 mouse lymphoma tumors; type: in vivo; settings: E1-4 cells lacking heparanase activity
Experimental: (§3) Lymphoma cells were also inoculated subcutaneously at the right flank of 6-weeks-old NOD/SCID mice (human cell lines) or C57BL/6 mice (E1-4 mouse lymphoma cells) (n=7). Mice were treated with heparanase inhibitors (PG545; SST0001) or neutralizing antibodies and xenografts size was determined by externally measuring the tumors in 2 dimensions using a caliper. At the end of the experiment, mice were sacrificed; tumor xenografts were removed, weighed and fixed for histological and immunohistochemical analyses (Weissmann et al, 2016, Proc Natl Acad Sci USA 113:704-709). ESb mouse T-lymphoma cells (5×10^5) were similarly inoculated subcutaneously into SCID mice and spontaneous metastasis to the liver (Vlodaysky et al., 1983, Cancer Res 43:2704-2711) was examined after 3 weeks of treatment with PG545 or the neutralizing mAb, as described above. All animal experiments were approved by the Animal Care Committee of the Technion, Haifa, Israel.

[3] = system: ESb mouse T-lymphoma cells; experiment: ESb T-lymphoma spontaneous liver metastasis and survival; type: in vivo; settings: PG545 20 mg/kg once a week
Experimental: as §3
FIG. 3A. HEK 293 cells were incubated with latent 65 kDa (upper panel) or GS3 constitutively active heparanase (1 μg/ml; third panel) and the indicated mAbs (10 μg/ml). The cell medium was aspirated at the time designated and cell lysates were subjected to immunoblotting applying anti-heparanase antibody (upper and third panels). […] Heparanase-transfected 293 cells were grown with control mouse IgM or mAb 9E8 for two days. Cells were then fixed with methanol and subjected to immunofluorescent staining applying anti heparanase antibody (second panel) or lysed and subjected to immunoblotting applying anti-heparanase antibody (fourth panel). Purified recombinant active heparanase (200 ng) was pre-incubated with control mouse IgM ( ? ), mAb 8A5 ( ? ), mAb 9E8 ( ? ), all at 2 μg/ml, for 2 h in serum-free RPMI medium on ice. The mixture was then applied onto ^35S-labeled ECM-coated dishes and heparanase activity was determined as described above (lower panel). FIG. 3B, C. […] Quantification of the extent of CD45 staining is shown graphically in the lower panel. […]

SU-DHL-6 lymphoma cells = experiment: Subcutaneous SU-DHL-6 lymphoma xenograft in mice; type: in vivo, human; settings: SU-DHL-6, PG545 IP 20 mg/kg once weekly from one day after inoculation
Experimental: The indicated lymphoma cells (5×10^6) were implanted subcutaneously in NOD/SCID mice (n=7) and mice were administered with PG545 (IP, 20 mg/kg, once weekly, starting one day after cell inoculation), or control vehicle (PBS; Con). At termination, tumors were removed, weighted and embedded in paraffin for histological and immunohistochemical analyses. Mice were similarly inoculated with the indicated lymphoma cells and were treated with the indicated concentration of PG545 (mg/kg once a week; FIG. 1C) or were treated with PG545 (20 mg/kg once a week) once the tumors became palpable (FIG. 1D). Shown are average (±SE) tumor weight (gr.).

Raji lymphoma cells = experiment: Subcutaneous Raji lymphoma xenograft in NOD/SCID mice; type: in vivo, human
Experimental: as §1, §2

Daudi lymphoma cells = experiment: Subcutaneous Daudi lymphoma xenograft in NOD/SCID mice; type: in vivo, human; settings: PG545 IP 20 mg/kg once weekly from one day after inoculation
Experimental: as §1, §2

Raji-luciferase cells = experiment: Raji-luciferase lymphoma, tail vein inoculation, bone marrow growth by IVIS imaging; type: in vivo, human; settings: PG545 20 mg/kg once a week
Experimental: Tumorigenicity. Luciferase-labelled CAG myeloma (5×10^6) or Raji lymphoma (1×10^6) cells were injected into the tail vein of NOD/SCID mice (n=5). Mice were treated with PG545 (20 mg/kg, once weekly), mAb 9E8 (600 μg/mouse) every other day starting one day following cell inoculation and tumor growth was examined by IVIS imaging. At termination, mice were sacrificed, the backbones were excised, fixed in formalin and following de-calcification with 10% EDTA solution were embedded in paraffin and subjected to histological and immunohistochemical analyses essentially as described (Weissmann et al, 2016, Proc Natl Acad Sci USA 113:704-709). Dose of 25-30 mg/kg (i.e., 500-600 μg mAb/mouse) is typical in cancer restraining experiments (Van Looy T, et al. 2015, Transl Oncol 8(2):112-118).
IVIS imaging. Bioluminescent imaging of the luciferase-expressing tumors was performed with a highly sensitive, cooled charge coupled device (CCD) camera mounted in a light-tight specimen box (IVIS; Xenogen Corp., Waltham, Mass.). Briefly, mice were injected intraperitoneally with D-luciferin substrate at 150 mg/kg, anesthetized and placed onto a stage inside the light-tight camera box, with continuous exposure to isoflurane (EZAnesthesia, Palmer, Pa.). Light emitted from the bioluminescent cells was detected by the IVIS camera system with images quantified for tumor burden using a log-scale color range set at 5×10^4 to 1×10^7 and measurement of total photon counts per second (PPS) using Living Image software (Xenogen) (Weissmann et al, 2016, Proc Natl Acad Sci USA 113:704-709).
FIG. 4A. Raji-luciferase cells (1×10^6) were injected into the tail vein of NOD/SCID mice (n=5). Mice were treated with PG545 (20 mg/kg once a week) starting one day after cell inoculation and IVIS imaging was applied to quantify tumor load. […] NOD/SCID mice (n=5) were inoculated (iv) with Raji-luciferase cells and mice were treated with mAb 9E8 (600 μg/mouse every other day) (FIG. 4C) and tumor growth was evaluated by IVIS imaging (left panels). Quantification of luciferase signals is shown graphically in the right lower panel.

OCI-LY-19 lymphoma cells = experiment: Subcutaneous OCI-LY-19 lymphoma xenograft in NOD/SCID mice; type: in vivo, human; settings: OCI-LY-19, PG545 IP 20 mg/kg once weekly from one day after inoculation
Experimental: as §1, §2

[4] = system: human lymphoma cell lines; experiment: Subcutaneous human lymphoma xenografts, dose response and treatment of palpable tumors (cell lines only 'indicated'); type: in vivo
Experimental: as §1, §2

## KKFKNSTYSRSSVD [KKDC]
heparanase
  inhibition of heparanase activity: inhibits heparanase enzymatic activity
[1]
  interaction with heparin and HS: high affinity

## CC(C)CCC[C@@H](C)[C@H]1CC[C@H]2[C@@H]3CC[C@H]4C[C@@H](O[C@@H]5O[C@H](COS(=O)(=O)O)[C@@H](O[C@H]6O[C@H](COS(=O)(=O)O)[C@@H](O[C@H]7O[C@H](COS(=O)(=O)O)[C@@H](O[C@H]8O[C@H](COS(=O)(=O)O)[C@@H](OS(=O)(=O)O)[C@H](OS(=O)(=O)O)[C@H]8OS(=O)(=O)O)[C@H](OS(=O)(=O)O)[C@H]7OS(=O)(=O)O)[C@H](OS(=O)(=O)O)[C@H]6OS(=O)(=O)O)[C@H](OS(=O)(=O)O)[C@H]5OS(=O)(=O)O)CC[C@]4(C)[C@H]3CC[C@]12C [PG545]
Ramos lymphoma cells
  growth of tumor xenografts (tumor weight): markedly attenuated
[2]
  growth of tumor xenografts: not inhibited
[3]; ESb s.c. in NOD/SCID mice
  survival of mice: prolonged
[3]; ESb
  liver metastasis: reduced liver metastasis
SU-DHL-6 lymphoma cells
  growth of tumor xenografts (tumor weight): markedly attenuated
Raji lymphoma cells; Raji, PG545 IP 20 mg/kg once weekly from one day after inoculation
  growth of tumor xenografts (tumor weight): markedly attenuated
Raji lymphoma cells; extracts of Raji xenografts on sulfate labelled ECM
  heparanase activity in tumor xenograft extracts: inhibits heparanase activity
Daudi lymphoma cells
  growth of tumor xenografts (tumor weight): markedly attenuated
Raji-luciferase cells
  blood vessel density (CD31) in bone marrow: decreased blood vessel density
Raji-luciferase cells; IVIS
  expansion of Raji-luciferase cells in the bone marrow: markedly reduced
OCI-LY-19 lymphoma cells
  growth of tumor xenografts (tumor weight): markedly attenuated
[4]; PG545 20 mg/kg once a week (FIG. 1D)
  inhibition of tumor xenograft growth when treated once lesions became palpable: significant inhibition
[4]; indicated concentrations mg/kg once a week (FIG. 1C)
  dose dependence of xenograft growth attenuation: dose-dependent manner
